Laboratory results published in ChEMBL document CHEMBL4130359, “Indazole-based ligands for estrogen-related receptor α as potential anti-diabetic agents” (Eur J Med Chem, 2017).
The source made the active and inactive calls. The calls are words filed in the database; no cut-off is given here.

What was measured:
Rattus norvegicus [1] = assay: Increase in ADIPOQ mRNA expression in epididymal white adipose tissue of Zucker rat sub-chronic fa/fa prediabetic model at 10 mg/kg, po qd for 15 days by RT-PCR method; assay type: functional, organism-based
Rattus norvegicus [2] = assay: Toxicity in Zucker rat sub-chronic fa/fa prediabetic model assessed as heart weight at 1 mg/kg, po qd for 31 days measured on day 32 (reference value: 1.19 +/- 0.04 g); assay type: organism-based; details: in vivo, 744 h
Rattus norvegicus [3] = assay: Toxicity in Zucker rat sub-chronic fa/fa prediabetic model assessed as serum AST level at 10 mg/kg, po qd for 31 days measured on day 32 (reference value: 187 +/- 37 U/L); assay type: organism-based; details: in vivo, 744 h
Rattus norvegicus [4] = assay: Effect on DLST gene expression in epididymal white adipose tissue of Zucker rat sub-chronic fa/fa prediabetic model at 10 mg/kg, po qd for 15 days by microarray analysis relative to control; assay type: functional
Rattus norvegicus [5] = assay: Toxicity in […] chronic ob/ob model assessed as brown adipose tissue weight at 3 mg/kg, po qd for 31 days measured on day 32 (reference value: 0.59 +/- 0.05 g); assay type: organism-based; details: in vivo, 744 h
Rattus norvegicus [6] = assay: Effect on ACAT1 gene expression in epididymal white adipose tissue of Zucker rat sub-chronic fa/fa prediabetic model at 10 mg/kg, po qd for 15 days by microarray analysis relative to control; assay type: functional
Rattus norvegicus [7] = assay: Effect on YWHAG gene expression in epididymal white adipose tissue of Zucker rat sub-chronic fa/fa prediabetic model at 10 mg/kg, po qd for 15 days by microarray analysis relative to control; assay type: functional
Rattus norvegicus [8] = assay: Toxicity in […] model assessed as liver weight at 50 mg/kg, po qd for 31 days measured on day 32 (reference value: 2.77 +/- 0.16 g); assay type: organism-based; details: in vivo, 744 h
[9] = target: T1, Steroid hormone receptor ERR1 (Homo sapiens, UniProt P11474); assay: Antagonist activity at His6-tagged ERRalpha LBD (unknown origin) assessed as inhibition of GST-tagged SRC-2 co-activator peptide recruitment after 18 hrs by TR-FRET assay
T1 sequence (P11474 whole entry): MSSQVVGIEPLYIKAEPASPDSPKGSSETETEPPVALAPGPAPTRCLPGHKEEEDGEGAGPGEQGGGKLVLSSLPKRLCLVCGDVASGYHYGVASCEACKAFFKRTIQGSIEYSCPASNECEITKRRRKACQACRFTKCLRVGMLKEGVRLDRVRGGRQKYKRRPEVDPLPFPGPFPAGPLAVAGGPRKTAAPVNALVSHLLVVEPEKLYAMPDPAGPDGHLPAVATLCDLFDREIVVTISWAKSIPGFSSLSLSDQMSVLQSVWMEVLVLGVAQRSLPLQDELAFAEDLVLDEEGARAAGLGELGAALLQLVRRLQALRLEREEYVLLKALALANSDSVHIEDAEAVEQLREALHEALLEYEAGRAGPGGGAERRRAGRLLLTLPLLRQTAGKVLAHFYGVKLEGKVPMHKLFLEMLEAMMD

[10] = Drug uptake in kidney of Zucker rat sub-chronic fa/fa prediabetic model at 12.5 mg/kg, po qd for 11 days; assay type: ADME, organism-based; details: read-out: Drug uptake
Rattus norvegicus [11] = assay type: functional, Zucker
Rattus norvegicus [12] = assay: Effect on NDUFB9 gene expression in epididymal white adipose tissue of Zucker rat sub-chronic fa/fa prediabetic model at 10 mg/kg, po qd for 15 days by microarray analysis relative to control; assay type: functional
Rattus norvegicus [13] = assay: Antidiabetic activity in Zucker rat sub-chronic fa/fa prediabetic model assessed as reduction in blood glucose AUC (0 to 120 min) at 1 mg/kg, po qd for 31 days measured on day 29 post dose by OGTT relative to control; assay type: functional; set-up: scale not given: the % may be the effect or the level left
Rattus norvegicus [14] = assay: Effect on HLA-DMB gene expression in epididymal white adipose tissue of Zucker rat sub-chronic fa/fa prediabetic model at 10 mg/kg, po qd for 15 days by microarray analysis relative to control; assay type: functional
Rattus norvegicus [15] = assay: Toxicity in Zucker rat sub-chronic fa/fa prediabetic model assessed as serum BUN level at 10 mg/kg, po qd for 31 days measured on day 32 (reference value: 28.3 +/- […]); assay type: organism-based; details: in vivo, 744 h
[16] = Cmax in Zucker rat sub-chronic fa/fa prediabetic model at 10 mg/kg, po qd measured on day 1 post dose; assay type: ADME, organism-based; set-up: dose 10 mg/kg, route oral; details: in vivo
Rattus norvegicus [17] = assay: Toxicity in Zucker rat sub-chronic fa/fa prediabetic model assessed as serum BUN level at 50 mg/kg, po qd for 31 days measured on day 32 (reference value: 28.3 +/- […]); assay type: organism-based; details: in vivo, 744 h
Rattus norvegicus [18] = assay: Toxicity in Zucker rat sub-chronic fa/fa prediabetic model assessed as heart weight at 3 mg/kg, po qd for 31 days measured on day 32 (reference value: 1.19 +/- 0.04 g); assay type: organism-based; details: in vivo, 744 h
Rattus norvegicus [19] = assay: Toxicity in Zucker rat sub-chronic fa/fa prediabetic model assessed as body weight at 50 mg/kg, po qd for 29 days measured on day 29 post last dose (reference value: 533 +/- 10 g); assay type: organism-based; details: in vivo, 696 h
Rattus norvegicus [20] = assay: Toxicity in […] model assessed as serum ALT level at 10 mg/kg, po qd for 31 days measured on day 32 (reference value: 127 +/- 9 U/L); assay type: organism-based; details: in vivo, 744 h
Rattus norvegicus [21] = assay: Effect on PRKCD gene expression in epididymal white adipose tissue of Zucker rat sub-chronic fa/fa prediabetic model at 10 mg/kg, po qd for 15 days by microarray analysis relative to control; assay type: functional
Rattus norvegicus [22] = assay: Toxicity in […] chronic ob/ob model assessed as body weight at 50 mg/kg, po qd for 28 days measured on day 28 post last dose (reference value: 47.3 +/- 1.06 g); assay type: organism-based; details: in vivo, 672 h
Rattus norvegicus [23] = assay: Effect on CD3D gene expression in epididymal white adipose tissue of Zucker rat sub-chronic fa/fa prediabetic model at 10 mg/kg, po qd for 15 days by microarray analysis relative to control; assay type: functional
[24] = Cmax in Zucker rat sub-chronic fa/fa prediabetic model at 1 mg/kg, po qd measured on day 1 post dose; assay type: ADME, organism-based; set-up: dose 1 mg/kg, route oral; details: in vivo
[25] = AUC (0 to 24 hrs) in Zucker rat sub-chronic fa/fa prediabetic model at 3 mg/kg, po qd measured on day 1 post dose; assay type: ADME, organism-based; set-up: time < 24 hr, dose 3 mg/kg, route oral; details: in vivo
Rattus norvegicus [26] = assay: Toxicity in […] chronic ob/ob model assessed as decrease in epididymal white adipose tissue weight at administered po qd for 31 days measured on day 32; assay type: organism-based; details: in vivo, 744 h
[27] = target: Peroxisome proliferator-activated receptor alpha (Homo sapiens, UniProt Q07869); assay: Agonist activity at recombinant GST-tagged human PPARalpha LBD assessed as fluorescein-labeled coactivator peptide recruitment preincubated with enzyme followed by coactivator addition by LanthaScreen TR-FRET assay
Rattus norvegicus [28] = assay: Effect on PIK3R6 gene expression in epididymal white adipose tissue of Zucker rat sub-chronic fa/fa prediabetic model at 10 mg/kg, po qd for 15 days by microarray analysis relative to control; assay type: functional
Rattus norvegicus [29] = assay: Antidiabetic activity in Zucker rat sub-chronic fa/fa prediabetic model assessed as increase in serum adiponectin level administered orally once daily for 32 days by ELISA; assay type: functional, organism-based

Sequence of Peroxisome proliferator-activated receptor alpha (Q07869 whole entry, the tested form may be a part): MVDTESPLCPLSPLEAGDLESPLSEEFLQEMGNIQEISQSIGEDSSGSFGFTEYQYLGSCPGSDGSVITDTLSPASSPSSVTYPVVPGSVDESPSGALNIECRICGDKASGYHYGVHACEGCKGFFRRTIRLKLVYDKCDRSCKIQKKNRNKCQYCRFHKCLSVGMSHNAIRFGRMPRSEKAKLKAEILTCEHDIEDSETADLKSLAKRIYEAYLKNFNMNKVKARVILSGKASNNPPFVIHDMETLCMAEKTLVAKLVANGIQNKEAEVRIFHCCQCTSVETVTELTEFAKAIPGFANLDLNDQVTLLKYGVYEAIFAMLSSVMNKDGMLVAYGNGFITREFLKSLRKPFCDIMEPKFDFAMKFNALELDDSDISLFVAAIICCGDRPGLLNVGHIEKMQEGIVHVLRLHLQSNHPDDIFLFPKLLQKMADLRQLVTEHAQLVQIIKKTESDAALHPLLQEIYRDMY

In the case of `CN1CC[C@@H](N2C(=O)S/C(=C\c3ccc4c(cnn4Cc4ccc(Cl)cc4C(F)(F)F)c3)C2=O)[C@H](F)C1`, the Activity (Rattus norvegicus [1]) is reported as “Active”, the Activity (Rattus norvegicus [2]) is reported as 1.16 g and the Activity (Rattus norvegicus [3]) is reported as 98 U/L. The “fold change (FC)” value (Rattus norvegicus [4]) was 1.352, the Activity (Rattus norvegicus [5]) was 0.61 g and the “fold change (FC)” value (Rattus norvegicus [6]) was 1.634. The “fold change (FC)” value (Rattus norvegicus [7]) was 1.255, the Activity (Rattus norvegicus [8]) was 2.61 g and the IC50 [9] was 23 nM. The concentration at 264 h [10] was 2660 ng/g, the Activity (Rattus norvegicus [11]) was 27017 mg·min/dL and the “fold change (FC)” value (Rattus norvegicus [12]) was 1.214. The Activity (Rattus norvegicus [13]) was 23%, the “fold change (FC)” value (Rattus norvegicus [14]) was -1.288 and the Activity (Rattus norvegicus [15]) was 26.9 mg/dL. The Cmax [16] was 1570 ng/mL, the Activity (Rattus norvegicus [17]) was 23.9 mg/dL and the Activity (Rattus norvegicus [18]) was 1.15 g. The Activity (Rattus norvegicus [19]) was 557 g, the Activity (Rattus norvegicus [20]) was 135 U/L and the “fold change (FC)” value (Rattus norvegicus [21]) was -1.615. For the same molecule, the Activity (Rattus norvegicus [22]) was 46.8 g, the “fold change (FC)” value (Rattus norvegicus [23]) was -1.256 and the Cmax [24] was 262 ng/mL. For the same molecule, the AUC(0-t) at 24 h [25] was 5980 ng·h/mL, the Activity (Rattus norvegicus [26]) was “Dose-dependent effect” and the EC50 [27] was greater than 10000 nM. For the same molecule, the “fold change (FC)” value (Rattus norvegicus [28]) was -1.276 and the Activity (Rattus norvegicus [29]) was “Dose-dependent effect”.
